Measured values from US20240199546A1, “INHIBITORS OF SOLUTE CARRIER FAMILY 6A MEMBER 19 (SLC6A19) AND METHODS OF USE THEREOF” (Maze Therapeutics, Inc., priority 2022, published 2024).

Columns and labels:
[1] = target: T1, human SLC6A19 and TMEM27 (Homo sapiens, UniProt Q695T7); assay: Radiolabelled (3H) leucine uptake in CHO cells with doxycycline-inducible expression of human SLC6A19 and TMEM27 (Example B-1); type: cell-based; details: CHO cells with doxycycline-inducible expression of human SLC6A19 and TMEM27, read-out: SLC6A19_Radioligand Uptake Assay IC50
T1 construct: expressed in transfected cells
T1 sequence (Q695T7 1-634): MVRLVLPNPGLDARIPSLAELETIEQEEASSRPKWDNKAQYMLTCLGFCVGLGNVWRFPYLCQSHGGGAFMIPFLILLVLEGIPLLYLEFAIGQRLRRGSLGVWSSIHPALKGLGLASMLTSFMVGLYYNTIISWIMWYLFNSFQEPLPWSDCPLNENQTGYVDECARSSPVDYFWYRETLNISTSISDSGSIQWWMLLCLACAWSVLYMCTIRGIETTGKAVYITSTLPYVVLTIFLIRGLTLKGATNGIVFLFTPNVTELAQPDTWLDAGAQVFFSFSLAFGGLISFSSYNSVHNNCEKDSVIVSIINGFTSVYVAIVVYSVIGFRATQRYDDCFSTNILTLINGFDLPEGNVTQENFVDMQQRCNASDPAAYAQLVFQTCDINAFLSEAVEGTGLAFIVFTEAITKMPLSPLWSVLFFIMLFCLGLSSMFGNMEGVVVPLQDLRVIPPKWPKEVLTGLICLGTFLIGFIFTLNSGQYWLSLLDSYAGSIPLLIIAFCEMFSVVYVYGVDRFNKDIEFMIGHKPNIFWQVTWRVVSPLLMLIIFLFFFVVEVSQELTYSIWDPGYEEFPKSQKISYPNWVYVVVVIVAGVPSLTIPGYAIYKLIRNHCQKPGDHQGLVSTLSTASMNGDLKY
T1 sequence (Q9HBJ8 15-222 partner): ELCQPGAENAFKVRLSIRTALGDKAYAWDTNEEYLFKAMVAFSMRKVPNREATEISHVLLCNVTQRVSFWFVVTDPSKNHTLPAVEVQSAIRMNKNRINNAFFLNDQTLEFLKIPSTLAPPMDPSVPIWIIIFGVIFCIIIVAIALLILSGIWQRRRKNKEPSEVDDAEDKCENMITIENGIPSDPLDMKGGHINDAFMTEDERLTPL
Procedure, shortened: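 CHO cells were induced with doxycycline for 18 h at 37 °C, washed in HBSS, then exposed to compounds for 1 h: 8-point, 3-fold dilutions in duplicate, 0.5% DMSO final. Uptake measured by scintillation counting after 2 h shaking. Activity normalized with positive control as 0% and DMSO as 100%.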

[2] = target: T1, human SLC6A19 and TMEM27; assay: 13C6,15N-isoleucine uptake in CHO cells with doxycycline-inducible expression of human SLC6A19 and TMEM27, RapidFire mass spectrometry (Example B-2); type: cell-based; details: read-out: SLC6A19_RapidFire Uptake Assay IC50
Procedure, shortened: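 CHO cells induced overnight with doxycycline to express human SLC6A19 plus TMEM27; 20 min preincubation with compound (10-point 2-fold series, duplicate) at 37 °C in HEPES buffer pH 7.2, then 20 min with 13C6,15N-isoleucine. Intracellular label quantified by RapidFire MS against 13C-leucine standard; positive control defined 100% inhibition.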

Compound	IC50 [1] [nM]	IC50 [2] [nM]
Cc1cncc(COc2cc3[nH]c(CNC(=O)C4(C)CC4)cc3cc2Cl)c1 [Compound 23, N-((5-chloro-6-((5-methylpyridin-3-yl)methoxy)-1H-indol-2-yl)methyl)-1-methylcyclopropane-1-carboxamide]	1430	502
Cc1csc(COc2cc3[nH]c(CNC(=O)C4(C)CC4)cc3cc2Cl)n1 [Compound 24, N-((5-chloro-6-((4-methylthiazol-2-yl)methoxy)-1H-indol-2-yl)methyl)-1-methylcyclopropane-1-carboxamide]	412	222
CC1(C(=O)NCc2cc3cc(Cl)c(OCc4ccsc4)cc3[nH]2)CC1 [Compound 25, N-((5-chloro-6-(thiophen-3-ylmethoxy)-1H-indol-2-yl)methyl)-1-methylcyclopropane-1-carboxamide]	124	33
CC1(C(=O)NCc2cc3cc(Cl)c(OCc4ncccc4F)cc3[nH]2)CC1 [Compound 26, N-((5-chloro-6-((3-fluoropyridin-2-yl)methoxy)-1H-indol-2-yl)methyl)-1-methylcyclopropane-1-carboxamide]	149	166
CC1(C(=O)NCc2cc3c(F)cc(OCc4ccon4)cc3[nH]2)CC1 [Compound 27, N-((4-fluoro-6-(isoxazol-3-ylmethoxy)-1H-indol-2-yl)methyl)-1-methylcyclopropane-1-carboxamide]	84	92
CC1(C(=O)NCc2cc3cc(Cl)c(OCc4ccc(F)cn4)cc3[nH]2)CC1 [Compound 28, N-((5-chloro-6-((5-fluoropyridin-2-yl)methoxy)-1H-indol-2-yl)methyl)-1-methylcyclopropane-1-carboxamide]	170	79
CC1(C(=O)NCc2cc3c(F)cc(OCc4cscn4)cc3[nH]2)CC1 [Compound 29, N-((4-fluoro-6-(thiazol-4-ylmethoxy)-1H-indol-2-yl)methyl)-1-methylcyclopropane-1-carboxamide]	60	45
CC1(C(=O)NCc2cc3cc(Cl)c(OCc4cccnc4F)cc3[nH]2)CC1 [Compound 30, N-((5-chloro-6-((2-fluoropyridin-3-yl)methoxy)-1H-indol-2-yl)methyl)-1-methylcyclopropane-1-carboxamide]	263	155
CC1(C(=O)NCc2cc3cc(Cl)c(OCc4ccc(F)nc4)cc3[nH]2)CC1 [Compound 31, N-((5-chloro-6-((6-fluoropyridin-3-yl)methoxy)-1H-indol-2-yl)methyl)-1-methylcyclopropane-1-carboxamide]	419	504
CC1(C(=O)NCc2cc3cc(Cl)c(OCc4cccc(F)n4)cc3[nH]2)CC1 [Compound 32, N-((5-chloro-6-((6-fluoropyridin-2-yl)methoxy)-1H-indol-2-yl)methyl)-1-methylcyclopropane-1-carboxamide]	133	58
CC1(C(=O)NCc2cc3ccc(OCc4cccc(F)n4)cc3[nH]2)CC1 [Compound 33, N-((6-((6-fluoropyridin-2-yl)methoxy)-1H-indol-2-yl)methyl)-1-methylcyclopropane-1-carboxamide]	172	221
CC1(C(=O)NCc2cc3ccc(OCc4ccc(F)nc4)cc3[nH]2)CC1 [Compound 34, N-((6-((6-fluoropyridin-3-yl)methoxy)-1H-indol-2-yl)methyl)-1-methylcyclopropane-1-carboxamide]	602	615
CC1(C(=O)NCc2cc3cc(Cl)c(OCc4cncc(F)c4)cc3[nH]2)CC1 [Compound 36, N-((5-chloro-6-((5-fluoropyridin-3-yl)methoxy)-1H-indol-2-yl)methyl)-1-methylcyclopropane-1-carboxamide]	716	316
CC1(C(=O)NCc2cc3cc(Cl)c(OCc4ccccn4)cc3[nH]2)CC1 [Compound 41, N-((5-chloro-6-(pyridin-2-ylmethoxy)-1H-indol-2-yl)methyl)-1-methylcyclopropane-1-carboxamide]	261	71
Cc1cc(COc2cc3[nH]c(CNC(=O)C4(C)CC4)cc3cc2Cl)no1 [Compound 45, N-((5-chloro-6-((5-methylisoxazol-3-yl)methoxy)-1H-indol-2-yl)methyl)-1-methylcyclopropane-1-carboxamide]	180	75
CC1(C(=O)NCc2cc3cc(Cl)c(OCc4ccon4)cc3[nH]2)CC1 [Compound 46, N-((5-chloro-6-(isoxazol-3-ylmethoxy)-1H-indol-2-yl)methyl)-1-methylcyclopropane-1-carboxamide]	70	61
Cc1cc(COc2cc3[nH]c(CNC(=O)C4(C)CC4)cc3cc2C(F)(F)F)no1 [Compound 58, 1-methyl-N-((6-((5-methylisoxazol-3-yl)methoxy)-5-(trifluoromethyl)-1H-indol-2-yl)methyl)cyclopropanecarboxamide]	162	28
CC1(C(=O)NCc2cc3cc(C(F)(F)F)c(OCc4ccon4)cc3[nH]2)CC1 [Compound 59, N-((6-(isoxazol-3-ylmethoxy)-5-(trifluoromethyl)-1H-indol-2-yl)methyl)-1-methylcyclopropane-1-carboxamide]	214	153
CC1(C(=O)NCc2cc3cc(C(F)(F)F)c(OCc4cscn4)cc3[nH]2)CC1 [Compound 60, 1-methyl-N-((6-(thiazol-4-ylmethoxy)-5-(trifluoromethyl)-1H-indol-2-yl)methyl)cyclopropane-1-carboxamide]	254	71
Cc1cnc(COc2cc3[nH]c(CNC(=O)C4(C)CC4)cc3cc2Cl)s1 [Compound 63, N-((5-chloro-6-((5-methylthiazol-2-yl)methoxy)-1H-indol-2-yl)methyl)-1-methylcyclopropane-1-carboxamide]	299	56
CC1(C(=O)NCc2cc3cc(Cl)c(OCc4ccoc4)cc3[nH]2)CC1 [Compound 64, N-((5-chloro-6-(furan-3-ylmethoxy)-1H-indol-2-yl)methyl)-1-methylcyclopropane-1-carboxamide]	78	24
CC1(C(=O)NCc2cc3cc(Cl)c(OCc4cccs4)cc3[nH]2)CC1 [Compound 65, N-((5-chloro-6-(thiophen-2-ylmethoxy)-1H-indol-2-yl)methyl)-1-methylcyclopropane-1-carboxamide]	152	46
CC1(C(=O)NCc2cc3cc(Cl)c(OCc4ccco4)cc3[nH]2)CC1 [Compound 66, N-((5-chloro-6-(furan-2-ylmethoxy)-1H-indol-2-yl)methyl)-1-methylcyclopropane-1-carboxamide]	70	27
CC1(C(=O)NCc2cc3cc(Cl)c(OCCc4cscn4)cc3[nH]2)CC1 [Compound 67, N-((5-chloro-6-(2-(thiazol-4-yl)ethoxy)-1H-indol-2-yl)methyl)-1-methylcyclopropane-1-carboxamide]	169	117
CC1(C(=O)NCc2cc3ccc(OCc4cnsc4)cc3[nH]2)CC1 [Compound 68, N-((6-(isothiazol-4-ylmethoxy)-1H-indol-2-yl)methyl)-1-methylcyclopropane-1-carboxamide]	119	117
CC1(C(=O)NCc2cc3cc(Cl)c(OCc4cnsc4)cc3[nH]2)CC1 [Compound 69, N-((5-chloro-6-(isothiazol-4-ylmethoxy)-1H-indol-2-yl)methyl)-1-methylcyclopropane-1-carboxamide]	148	78
Cc1cnc(COc2cc3[nH]c(CNC(=O)C4(C)CC4)cc3cc2Cl)o1 [Compound 70, N-((5-chloro-6-((5-methyloxazol-2-yl)methoxy)-1H-indol-2-yl)methyl)-1-methylcyclopropane-1-carboxamide]	117	62
CC1(C(=O)NCc2cc3ccc(CCc4cscn4)cc3[nH]2)CC1 [Compound 76, 1-methyl-N-((6-(2-(thiazol-4-yl)ethyl)-1H-indol-2-yl)methyl)cyclopropane-1-carboxamide]	100	34
